Laboratory results as given in patent US20250122183A1 (Pfizer Inc., priority 2023, published 2025).

Tests used:
Format in all cases: biochemical
[1] = biological target: KAT7+JADE1+EAF6+ING5 4 protein complex (Homo sapiens (Human), UniProt O95251); assay: KAT7 JADE1 assay (SAMDI-MS acetylation of H3 1-21 peptide); conditions: Morrison equation fit; replicate number in parentheses; read-out: KAT7 JADE1 Ki (nM) (replicate number)
KAT8 Full length enzyme = KAT8 Full length enzyme (Homo sapiens (Human), UniProt Q9H7Z6); assay: KAT8 assay (SAMDI-MS acetylation of H3 1-21 peptide); conditions: Morrison equation fit; replicate number in parentheses; read-out: KAT8 Ki (nM) (replicate number)
KAT6A Full length enzyme = KAT6A Full length enzyme (Homo sapiens (Human), UniProt Q92794); assay: KAT6A assay (SAMDI-MS acetylation of H3 1-21 peptide); conditions: Morrison equation fit; replicate number in parentheses; read-out: KAT6A Ki (nM) (replicate number)
KAT5 Full length enzyme = KAT5 Full length enzyme (Homo sapiens (Human), UniProt Q92993); assay: KAT5 assay (SAMDI-MS acetylation of H4 1-21 peptide); conditions: Morrison equation fit; replicate number in parentheses; read-out: KAT5 Ki (nM) (replicate number)
Sequence of KAT5 Full length enzyme (Q92993 whole entry): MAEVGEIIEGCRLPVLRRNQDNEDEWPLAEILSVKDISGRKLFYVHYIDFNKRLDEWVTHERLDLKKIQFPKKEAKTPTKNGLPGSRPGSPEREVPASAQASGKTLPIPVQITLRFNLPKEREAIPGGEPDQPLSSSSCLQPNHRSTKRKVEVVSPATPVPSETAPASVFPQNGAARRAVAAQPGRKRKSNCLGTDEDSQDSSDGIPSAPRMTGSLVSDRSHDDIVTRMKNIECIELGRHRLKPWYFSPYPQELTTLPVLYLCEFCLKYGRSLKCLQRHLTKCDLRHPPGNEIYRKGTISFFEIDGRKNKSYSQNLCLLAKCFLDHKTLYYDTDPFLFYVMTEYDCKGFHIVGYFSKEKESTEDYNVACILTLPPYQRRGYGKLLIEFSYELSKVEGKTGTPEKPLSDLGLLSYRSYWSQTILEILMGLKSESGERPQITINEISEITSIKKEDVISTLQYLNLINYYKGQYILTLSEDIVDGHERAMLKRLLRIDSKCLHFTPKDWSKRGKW

Sequence of KAT8 Full length enzyme (Q9H7Z6 whole entry): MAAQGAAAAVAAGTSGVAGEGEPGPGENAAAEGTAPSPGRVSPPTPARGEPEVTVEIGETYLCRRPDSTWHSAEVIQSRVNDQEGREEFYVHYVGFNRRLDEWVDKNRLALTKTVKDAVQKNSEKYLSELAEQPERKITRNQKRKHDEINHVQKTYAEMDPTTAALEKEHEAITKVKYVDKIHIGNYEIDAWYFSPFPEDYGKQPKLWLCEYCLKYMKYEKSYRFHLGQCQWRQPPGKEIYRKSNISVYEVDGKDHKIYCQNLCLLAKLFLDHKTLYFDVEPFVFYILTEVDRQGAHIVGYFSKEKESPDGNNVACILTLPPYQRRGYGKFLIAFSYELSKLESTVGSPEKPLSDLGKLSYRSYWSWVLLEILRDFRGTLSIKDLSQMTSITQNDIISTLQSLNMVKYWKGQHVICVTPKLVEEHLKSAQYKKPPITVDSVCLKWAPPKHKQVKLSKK
Sequence of KAT6A Full length enzyme (Q92794 other isoform, or with tags, fused parts or gaps): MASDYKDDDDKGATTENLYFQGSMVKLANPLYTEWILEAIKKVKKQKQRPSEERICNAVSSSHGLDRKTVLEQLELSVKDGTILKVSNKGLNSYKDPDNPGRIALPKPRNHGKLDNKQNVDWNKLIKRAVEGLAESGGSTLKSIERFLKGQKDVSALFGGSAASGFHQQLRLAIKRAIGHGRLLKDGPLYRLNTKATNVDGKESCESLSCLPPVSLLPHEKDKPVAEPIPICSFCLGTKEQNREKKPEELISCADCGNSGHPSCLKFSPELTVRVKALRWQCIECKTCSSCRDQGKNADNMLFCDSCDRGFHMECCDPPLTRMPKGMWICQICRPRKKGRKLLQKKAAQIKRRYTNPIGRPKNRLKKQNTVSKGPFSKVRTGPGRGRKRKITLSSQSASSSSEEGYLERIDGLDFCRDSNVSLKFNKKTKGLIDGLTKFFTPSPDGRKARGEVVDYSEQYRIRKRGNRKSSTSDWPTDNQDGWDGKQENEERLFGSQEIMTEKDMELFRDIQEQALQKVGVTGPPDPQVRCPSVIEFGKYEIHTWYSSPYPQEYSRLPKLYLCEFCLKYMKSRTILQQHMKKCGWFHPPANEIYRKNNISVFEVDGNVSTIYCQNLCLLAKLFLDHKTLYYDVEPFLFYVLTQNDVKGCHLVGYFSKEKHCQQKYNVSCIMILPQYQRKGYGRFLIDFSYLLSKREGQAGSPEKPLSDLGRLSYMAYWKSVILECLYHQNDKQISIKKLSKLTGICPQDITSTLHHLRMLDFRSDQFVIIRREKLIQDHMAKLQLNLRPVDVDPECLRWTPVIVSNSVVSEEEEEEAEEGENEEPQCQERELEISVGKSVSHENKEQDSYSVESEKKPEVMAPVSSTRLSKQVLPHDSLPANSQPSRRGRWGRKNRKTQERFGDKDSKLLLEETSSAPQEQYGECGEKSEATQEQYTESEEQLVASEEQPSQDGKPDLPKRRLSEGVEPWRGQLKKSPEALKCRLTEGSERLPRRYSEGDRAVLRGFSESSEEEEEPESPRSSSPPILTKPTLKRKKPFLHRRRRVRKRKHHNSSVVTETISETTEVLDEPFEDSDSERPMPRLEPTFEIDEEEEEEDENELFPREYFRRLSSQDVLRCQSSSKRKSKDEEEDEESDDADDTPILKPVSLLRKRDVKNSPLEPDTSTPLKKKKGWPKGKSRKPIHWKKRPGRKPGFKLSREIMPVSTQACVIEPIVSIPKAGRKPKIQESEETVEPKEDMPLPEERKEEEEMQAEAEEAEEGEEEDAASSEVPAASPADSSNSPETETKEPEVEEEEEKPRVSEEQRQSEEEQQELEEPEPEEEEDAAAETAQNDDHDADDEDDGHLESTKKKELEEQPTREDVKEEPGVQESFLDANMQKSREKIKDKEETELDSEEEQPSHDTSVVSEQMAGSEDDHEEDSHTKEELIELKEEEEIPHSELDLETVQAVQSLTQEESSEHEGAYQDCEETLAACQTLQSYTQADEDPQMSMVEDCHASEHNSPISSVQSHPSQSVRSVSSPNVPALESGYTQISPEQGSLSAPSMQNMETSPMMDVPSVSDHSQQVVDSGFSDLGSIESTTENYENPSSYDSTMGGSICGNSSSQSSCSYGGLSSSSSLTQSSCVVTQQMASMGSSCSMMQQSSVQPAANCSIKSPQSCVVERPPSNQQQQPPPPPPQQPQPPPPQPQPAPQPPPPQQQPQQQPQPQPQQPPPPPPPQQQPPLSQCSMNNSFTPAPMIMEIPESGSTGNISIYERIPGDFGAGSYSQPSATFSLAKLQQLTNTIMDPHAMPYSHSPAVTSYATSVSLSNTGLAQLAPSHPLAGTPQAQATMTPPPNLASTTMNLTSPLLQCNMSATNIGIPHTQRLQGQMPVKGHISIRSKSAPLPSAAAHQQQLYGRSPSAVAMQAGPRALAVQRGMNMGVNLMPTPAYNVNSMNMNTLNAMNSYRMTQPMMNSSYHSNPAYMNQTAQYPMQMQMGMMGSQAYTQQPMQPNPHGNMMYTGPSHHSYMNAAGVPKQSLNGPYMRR

Row | Compound | Ki [1] [nM] | Ki (KAT8 Full length enzyme) [nM] | Ki (KAT6A Full length enzyme) [nM] | Ki (KAT5 Full length enzyme) [nM]
1 | CCOc1cc(C(F)F)ccc1S(=O)(=O)Nc1noc2cc(Nc3cc(C4CC4)n[nH]3)c(F)c(OC)c12 [Example 101, N-{6-[(3-cyclopropyl-1H-pyrazol-5-yl)amino]-5-fluoro-4-methoxy-1,2-benzoxazol-3-yl}-4-(difluoromethyl)-2-ethoxybenzene-1-sulfonamide] | 50.7 | 10300 | 5.3 | 1230
2 | COc1cc2c(NS(=O)(=O)c3c(OC)cccc3OC)noc2cc1Nc1ncccn1 [Example 102, 2,6-dimethoxy-N-{5-methoxy-6-[(pyrimidin-2-yl)amino]-1,2-benzoxazol-3-yl}benzene-1-sulfonamide] | 1440 | > 19500 | 1.9 | 5970
3 | COc1cc2c(NS(=O)(=O)c3c(OC)cccc3OC)noc2cc1Nc1cc(C2CC2)n(C)n1 [Example 103, N-{6-[(5-cyclopropyl-1-methyl-1H-pyrazol-3-yl)amino]-5-methoxy-1,2-benzoxazol-3-yl}-2,6-dimethoxybenzene-1-sulfonamide] | 47.4 | 6010 | 2.8 | 254
4 | COc1cc2c(NS(=O)(=O)c3c(OC)cccc3OC)noc2cc1Nc1cc(OC)n(C)n1 [Example 104, 2,6-dimethoxy-N-{5-methoxy-6-[(5-methoxy-1-methyl-1H-pyrazol-3-yl)amino]-1,2-benzoxazol-3-yl}benzene-1-sulfonamide] | 139 | > 10900 | 5.6 | 1040
5 | COc1cc2c(NS(=O)(=O)c3c(OC)cccc3OC)noc2cc1Nc1nccc(C)n1 [Example 105, 2,6-dimethoxy-N-{5-methoxy-6-[(4-methylpyrimidin-2-yl)amino]-1,2-benzoxazol-3-yl}benzene-1-sulfonamide] | 414 | > 12700 | 9.7 | 4120
6 | CCc1ccnc(Nc2cc3onc(NS(=O)(=O)c4c(OC)cccc4OC)c3cc2OC)n1 [Example 106, N-{6-[(4-ethylpyrimidin-2-yl)amino]-5-methoxy-1,2-benzoxazol-3-yl}-2,6-dimethoxybenzene-1-sulfonamide] | 410 | 6430 | 11.7 | 1990
7 | CCc1cnc(Nc2cc3onc(NS(=O)(=O)c4c(OC)cccc4OC)c3cc2OC)nc1 [Example 107, N-{6-[(5-ethylpyrimidin-2-yl)amino]-5-methoxy-1,2-benzoxazol-3-yl}-2,6-dimethoxybenzene-1-sulfonamide] | 6540 | > 13000 | 132 | 10400
8 | COc1cc2c(NS(=O)(=O)c3c(OC)cccc3OC)noc2cc1Nc1nc(C)cc(C)n1 [Example 108, N-{6-[(4,6-dimethylpyrimidin-2-yl)amino]-5-methoxy-1,2-benzoxazol-3-yl}-2,6-dimethoxybenzene-1-sulfonamide] | 3420 | > 13000 | 202 | 45000
9 | COc1cc2c(NS(=O)(=O)c3c(OC)cccc3OC)noc2cc1Nc1ncc(C)cn1 [Example 110, 2,6-dimethoxy-N-{5-methoxy-6-[(5-methylpyrimidin-2-yl)amino]-1,2-benzoxazol-3-yl}benzene-1-sulfonamide] | 2820 | > 13000 | 44.1 | 6610
10 | COc1cc2c(NS(=O)(=O)c3c(OC)cccc3OC)noc2cc1Nc1ccccn1 [Example 111, 2,6-dimethoxy-N-{5-methoxy-6-[(pyridin-2-yl)amino]-1,2-benzoxazol-3-yl}benzene-1-sulfonamide] | 400 | > 13000 | 0.8 | 1130
11 | COc1cc2c(NS(=O)(=O)c3c(OC)cccc3OC)noc2cc1Nc1cc2n(n1)CCC21CC1 [Example 112, N-{6-[(5′,6′-dihydrospiro[cyclopropane-1,4′-pyrrolo[1,2-b]pyrazol]-2′-yl)amino]-5-methoxy-1,2-benzoxazol-3-yl}-2,6-dimethoxybenzene-1-sulfonamide] | 238 | > 13000 | 17.6 | 689
12 | CCn1nc(Nc2cc3onc(NS(=O)(=O)c4c(OC)cccc4OC)c3cc2OC)cc1C1CC1 [Example 113, N-{6-[(5-cyclopropyl-1-ethyl-1H-pyrazol-3-yl)amino]-5-methoxy-1,2-benzoxazol-3-yl}-2,6-dimethoxybenzene-1-sulfonamide] | 9090 | > 13000 | 348 | 50000
13 | COc1cc2c(NS(=O)(=O)c3c(OC)cccc3OC)noc2cc1Nc1cc(C(F)F)n[nH]1 [Example 115, N-(6-{[3-(difluoromethyl)-1H-pyrazol-5-yl]amino}-5-methoxy-1,2-benzoxazol-3-yl)-2,6-dimethoxybenzene-1-sulfonamide] | 32.2 | 8920 | 0.1 | 101
14 | COc1cc2c(NS(=O)(=O)c3c(OC)cccc3OC)noc2cc1Nc1cc(C(C)(C)C)n[nH]1 [Example 116, N-{6-[(3-tert-butyl-1H-pyrazol-5-yl)amino]-5-methoxy-1,2-benzoxazol-3-yl}-2,6-dimethoxybenzene-1-sulfonamide] | 98 | 7900 | 11.8 | 546
15 | COc1cc2c(NS(=O)(=O)c3c(OC)cccc3OC)noc2cc1Nc1cc(C2CC(F)(F)C2)[nH]n1 [Example 117, N-(6-{[5-(3,3-difluorocyclobutyl)-1H-pyrazol-3-yl]amino}-5-methoxy-1,2-benzoxazol-3-yl)-2,6-dimethoxybenzene-1-sulfonamide] | 25.1 | 10000 | 5.3 | 360
16 | COc1cc2c(NS(=O)(=O)c3c(OC)cc(-c4ccccn4)cc3OC)noc2cc1Nc1cc(C2CC2)n[nH]1 [Example 118, N-{6-[(3-cyclopropyl-1H-pyrazol-5-yl)amino]-5-methoxy-1,2-benzoxazol-3-yl}-2,6-dimethoxy-4-(pyridin-2-yl)benzene-1-sulfonamide] | 8.1 | 731 | 0.9 | 66.1
17 | COc1cc2c(NS(=O)(=O)c3c(OC)cc(-c4ccccc4)cc3OC)noc2cc1Nc1cc(C2CC2)n[nH]1 [Example 119, N-{6-[(3-cyclopropyl-1H-pyrazol-5-yl)amino]-5-methoxy-1,2-benzoxazol-3-yl}-3,5-dimethoxy[1,1′-biphenyl]-4-sulfonamide] | 3.6 | 156 | 0.2 | 19.4
18 | COc1cc2c(NS(=O)(=O)c3c(OC)cc(-c4ccncc4)cc3OC)noc2cc1Nc1cc(C2CC2)n[nH]1 [Example 120, N-{6-[(3-cyclopropyl-1H-pyrazol-5-yl)amino]-5-methoxy-1,2-benzoxazol-3-yl}-2,6-dimethoxy-4-(pyridin-4-yl)benzene-1-sulfonamide] | 10.8 | 640 | 0.8 | 236
19 | COc1cc2c(NS(=O)(=O)c3c(OC)cc(-c4cnn(C)c4)cc3OC)noc2cc1Nc1cc(C2CC2)n[nH]1 [Example 123, N-{6-[(3-cyclopropyl-1H-pyrazol-5-yl)amino]-5-methoxy-1,2-benzoxazol-3-yl}-2,6-dimethoxy-4-(1-methyl-1H-pyrazol-4-yl)benzene-1-sulfonamide] | 10.4 | 189 | 0.8 | 246
20 | CCc1cc(Nc2cc3onc(NS(=O)(=O)c4ccc(C(F)(F)F)cc4Cl)c3cc2OC)n[nH]1 [Example 124, 2-chloro-N-{6-[(5-ethyl-1H-pyrazol-3-yl)amino]-5-methoxy-1,2-benzoxazol-3-yl}-4-(trifluoromethyl)benzene-1-sulfonamide] | 47.9 | 8220 | 51.3 | 4570
21 | CCc1cc(Nc2cc3onc(NS(=O)(=O)c4cccc(Oc5ccccc5C)c4)c3cc2OC)n[nH]1 [Example 125, N-{6-[(5-ethyl-1 H-pyrazol-3-yl)amino]-5-methoxy-1,2-benzoxazol-3-yl}-3-(2-methylphenoxy)benzene-1-sulfonamide] | 180 | > 13000 | 48.6 | 5090
22 | CCc1cc(Nc2cc3onc(NS(=O)(=O)c4cccc(Oc5ccc(C)cc5)c4)c3cc2OC)n[nH]1 [Example 126, N-{6-[(5-ethyl-1 H-pyrazol-3-yl)amino]-5-methoxy-1,2-benzoxazol-3-yl}-3-(4-methylphenoxy)benzene-1-sulfonamide] | 237 | > 13000 | 52.1 | 5040
23 | CCCc1ccc(S(=O)(=O)Nc2noc3cc(Nc4cc(CC)[nH]n4)c(OC)cc23)cc1 [Example 127, N-{6-[(5-ethyl-1 H-pyrazol-3-yl)amino]-5-methoxy-1,2-benzoxazol-3-yl}-4-propylbenzene-1-sulfonamide] | 175 | > 13000 | 32.8 | 3940
24 | CCc1cc(Nc2cc3onc(NS(=O)(=O)c4cccc(Oc5ccc(F)cc5)c4)c3cc2OC)n[nH]1 [Example 128, N-{6-[(5-ethyl-1 H-pyrazol-3-yl)amino]-5-methoxy-1,2-benzoxazol-3-yl}-3-(4-fluorophenoxy)benzene-1-sulfonamide] | 212 | > 13000 | 38.1 | 7830
25 | CCc1cc(Nc2cc3onc(NS(=O)(=O)c4ccc5c(c4)OCCO5)c3cc2OC)n[nH]1 [Example 129, N-{6-[(5-ethyl-1 H-pyrazol-3-yl)amino]-5-methoxy-1,2-benzoxazol-3-yl}-2,3-dihydro-1,4-benzodioxine-6-sulfonamide] | 244 | > 13000 | 56.8 | 5630
